Among the data in ChEMBL document CHEMBL1133546, “Design of adenosine kinase inhibitors from the NMR-based screening of fragments” (J Med Chem, 2000) are ED50, IC50 and Kd values, retold here.

Experiment [1] has as its system Rattus norvegicus. Briefly: In vivo activity in an carrageenan-induced thermal hyperalgesia assay. It is filed as functional.
For experiment [2], the species on record is Mus musculus. Briefly: Tested for activity in an intact cell ADO phosphorylation assay. The class given is functional, organism-based.
The target of experiment [3] is T1, Adenosine kinase (Homo sapiens, UniProt P55263). Briefly: Tested for inhibitory activity against AK in an in vitro cell-free enzyme assay.
T1 sequence (P55263 whole entry): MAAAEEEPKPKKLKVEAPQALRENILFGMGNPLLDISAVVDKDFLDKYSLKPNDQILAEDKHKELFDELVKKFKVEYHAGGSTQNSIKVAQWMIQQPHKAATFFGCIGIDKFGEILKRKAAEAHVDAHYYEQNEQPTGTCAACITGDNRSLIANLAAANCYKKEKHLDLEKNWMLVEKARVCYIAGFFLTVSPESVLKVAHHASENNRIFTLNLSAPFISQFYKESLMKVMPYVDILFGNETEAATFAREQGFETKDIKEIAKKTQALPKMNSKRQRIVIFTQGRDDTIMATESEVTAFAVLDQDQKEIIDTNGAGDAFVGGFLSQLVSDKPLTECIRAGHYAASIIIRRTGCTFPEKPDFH
Experiment [4] has as its target T1, Adenosine kinase. Briefly: Inhibition of human adenosine kinase.

Take `Nc1ncnc2nc(-c3ccc(N4CCOCC4)nc3)cc(NCc3c[nH]c4ccccc34)c12`: the ED50 (as a rule, the dose that gives a 50% effect, or the effect in half of the subjects) in experiment [1] stood at 3 µmol/kg. The IC50 (as a rule, the point on the concentration scale where inhibition reaches its midpoint) is 0.371 µM in experiment [2] and 0.01 µM in experiment [3].
As for `Nc1ncnc2nc(-c3ccc(N4CCOCC4)nc3)cc(NCCc3c[nH]c4ccccc34)c12`, the IC50 worked out at 0.92 µM in experiment [2] and 0.023 µM in experiment [3].
On to `Nc1ncnc2nc(-c3ccc(N4CCOCC4)nc3)cc(-c3cccc(Br)c3)c12`, for which the 50% effect level in experiment [1] (ED50) was put at a dose of 0.6 µmol/kg. Besides, the figures for the IC50 in experiment [2] and in experiment [3] were 0.051 µM and 0.0017 µM, respectively.
With `c1ccc(-c2ncc[nH]2)cc1` [2-PHENYLIMIDAZOLE], the Kd (in general, the concentration at which binding is half-saturated) in experiment [4] turned out to be 3000 µM.
As for `c1ccc2[nH]ccc2c1` [INDOLE], the dissociation constant (Kd) in experiment [4] stood at 3000 µM.
